Experimental data: PMC8733726, “Dioctanoyl Ultrashort Tetrabasic β-Peptides Sensitize Multidrug-Resistant Gram-Negative Bacteria to Novobiocin and Rifampicin” (Frontiers in Microbiology, 2021)
Values after ≈ are worked out from the molar mass of the structure shown. Like-named read-outs stand apart in the source and are kept apart here.

Experiments:
in vitro [1] = format: cell-based; conditions: human
Description: The degree of hemolysis induced by dUSTBβPs was determined by the amount of hemoglobin released from human erythrocytes upon incubation. Fresh human blood supplied by a commercial vendor was obtained from normal healthy volunteers following informed consent. The agent of interest was serially diluted in vehicle consisting of phosphate-buffered saline (PBS), saline, 5% glucose, or equivalents. The samples were incubated with gentle mixing at 37°C for 45 min and were subsequently centrifuged. The supernatant (plasma layer) was removed and centrifuged once more to completely pellet the cells. The plasma layer was diluted with Drabkin’s reagent and analyzed at a wavelength of 540 nm. Experiments were conducted in triplicates, and a calibration curve prepared by diluting blood (after addition of vehicle) was used to quantitate heme release. The vehicle or Triton X-100 were used as negative or positive controls, respectively.

P. aeruginosa PAO1 = format: cell-based, Pseudomonas aeruginosa; conditions: PAO1, 18 h
Description: (§1) The in vitro antibacterial activities of dUSTBβPs were evaluated using microbroth dilution susceptibility test, in accordance with the Clinical and Laboratory Standards Institute (CLSI) guidelines ([Clinical and Laboratory Standards Institute, 2019]). Overnight-grown bacterial culture diluted in saline to 0.5 McFarland turbidity was successively diluted 1:50 in Mueller-Hinton broth (MHB) to achieve a final concentration of 5 × 10^5 colony forming units (CFU)/mL for inoculation. The agents were serially diluted 2-fold in MHB on a 96-well plate; mixed with bacterial inoculum of equal volumes, and incubated at 37°C for 18 h. Antibacterial activity was determined by the minimum inhibitory concentration (MIC), which is the lowest concentration of agent required for inhibition of visible bacterial growth in the form of turbidity. Confirmation of turbidity was done using an EMax Plus microplate reader (Molecular Devices, United States) at a wavelength of 590 nm. Wells comprising MHB alone or MHB inoculated with bacteria were used as negative or positive controls, respectively.

A. baumannii ATCC 17978 = format: cell-based, Acinetobacter baumannii; conditions: ATCC 17978, 18 h
Description: as §1

E. coli ATCC 25922 = format: cell-based, Escherichia coli; conditions: ATCC 25922, 18 h
Description: as §1

[2] = tested on: MDR clinical isolates of A. baumannii; format: cell-based, Acinetobacter baumannii; conditions: MDR clinical isolates of, 18 h
Description: (§2) The adjuvant activities of dUSTBβPs were evaluated using checkerboard assay as previously described ([Berry et al., 2019]). Overnight-grown bacterial culture diluted in saline to 0.5 McFarland turbidity was successively diluted 1:50 in MHB to achieve a final concentration of 5 × 10^5 CFU/mL for inoculation. The antibiotic and adjuvant were serially diluted 2-fold along the x-axis and y-axis, respectively, resulting in varying concentrations of both agents in each well. Subsequently, the 96-well plate was incubated with equal volumes of bacterial inoculum at 37°C for 18 h. Confirmation of turbidity was done using an EMax Plus microplate reader (Molecular Devices, United States) at a wavelength of 590 nm. Wells comprising MHB alone or in the presence of bacterial cells were used as negative or positive controls, respectively. Fractional inhibitory concentration index (FICI) is determined by adding the FICs of both antibiotic and adjuvant. The FIC of the antibiotic is calculated by dividing the MIC of the antibiotic in the presence of the adjuvant by the MIC of the antibiotic alone. Similarly, the FIC of the adjuvant is calculated by dividing the MIC of the adjuvant in the presence of the antibiotic by the MIC of the adjuvant alone. FICI ≤ 0.5, 0.5 < x ≤ 4, and >4 were deemed synergistic, additive, and antagonistic, respectively ([Meletiadis et al., 2010]).

in vitro [3] = conditions: human, plasma
Description: Stability of dUSTBβP 3 was evaluated in human plasma. […] The supernatant was analyzed by HPLC-tandem mass spectrometry using selected reaction monitoring. The % compound remaining was determined by comparing peak areas at different time points to time zero. Assuming first-order kinetics, the half-life was extrapolated from the slope of the initial linear range of the logarithmic curve of compound remaining over time. Experiments were performed in duplicates, and the reference compounds include propantheline and propoxycaine.

[4] = tested on: wild-type P. aeruginosa PAO1; experiment: microbe, parasite or virus in culture; format: cell-based, Pseudomonas aeruginosa; conditions: PAO1; for MICcombo: antibiotic with dUSTBβP 3 at 8 μg/mL; for MIC: Pseudomonas aeruginosa, 18 h, antibiotic alone (Supplementary Table 7), read-out: MICantibiotic
Source text: as §2, with “Overnight-grown” for “The adjuvant activities of dUSTBβPs were evaluated using checkerboard assay as previously described ([Berry et al., 2019]). Overnight-grown”, “Subsequently, the 96-well plate was incubated with equal volumes of bacterial inoculum at 37°C for 18 h.” left out, “alone.” for “alone. FICI ≤ 0.5, 0.5 < x ≤ 4, and >4 were deemed synergistic, additive, and antagonistic, respectively ([Meletiadis et al., 2010]).”

[5] = tested on: wild-type A. baumannii ATCC 17978; experiment: Checkerboard assay; format: cell-based, Acinetobacter baumannii; conditions: ATCC 17978; for MICcombo: antibiotic with dUSTBβP 3 at 8 μg/mL; for MIC: Acinetobacter baumannii, ATCC17978, 18 h, antibiotic alone (Supplementary Table 7), read-out: MICantibiotic
Source text: as §2, with “Overnight-grown” for “The adjuvant activities of dUSTBβPs were evaluated using checkerboard assay as previously described ([Berry et al., 2019]). Overnight-grown”, “Subsequently, the 96-well plate was incubated with equal volumes of bacterial inoculum at 37°C for 18 h.” left out, “alone.” for “alone. FICI ≤ 0.5, 0.5 < x ≤ 4, and >4 were deemed synergistic, additive, and antagonistic, respectively ([Meletiadis et al., 2010]).”

[6] = tested on: wild-type E. coli ATCC 25922; experiment: microbe, parasite or virus in culture; format: cell-based, Escherichia coli; conditions: ATCC 25922; for MICcombo: antibiotic with dUSTBβP 3 at 8 μg/mL; for MIC: Escherichia coli, ATCC25922, 18 h, antibiotic alone (Supplementary Table 7), read-out: MICantibiotic
Description: as §2

[7] = tested on: MDR P. aeruginosa clinical isolates; experiment: Resistance phenotype (MICs of antibiotics) of MDR clinical isolates; format: cell-based, Pseudomonas aeruginosa; conditions: Pseudomonas aeruginosa, read-out: MIC
[8] = tested on: MDR A. baumannii clinical isolates; experiment: as above; format: cell-based, Acinetobacter baumannii; conditions: Acinetobacter baumannii
[9] = tested on: MDR E. coli clinical isolates; experiment: as above; format: cell-based, Escherichia coli; conditions: Escherichia coli, read-out: MIC
[10] = tested on: MDR K. pneumoniae clinical isolates; experiment: as above; format: cell-based, Klebsiella pneumoniae; conditions: Klebsiella pneumoniae, read-out: MIC
[11] = tested on: MDR E. cloacae clinical isolates; experiment: as above; format: cell-based, Enterobacter cloacae; conditions: Enterobacter cloacae, read-out: MIC

| Compound | MIC (P. aeruginosa PAO1) | MIC (A. baumannii ATCC 17978) | MIC (E. coli ATCC 25922) | hemolysis at 45 min, 1.5625 µM (in vitro [1]) | hemolysis at 45 min, 3.125 µM (in vitro [1]) | hemolysis at 45 min, 6.25 µM (in vitro [1]) | hemolysis at 45 min, 12.5 µM (in vitro [1]) | hemolysis at 45 min, 25 µM (in vitro [1]) | hemolysis at 45 min, 50 µM (in vitro [1]) | hemolysis at 45 min, 100 µM (in vitro [1]) | hemolysis at 45 min, 200 µM (in vitro [1]) | MICcombo [4] | MIC [4] | MICcombo [5] | MIC [5] | MICcombo [6] | MIC [6] | MIC ([7]; 259-96196) | MIC ([7]; 262-101856) | MIC ([7]; 264-104354) | also measured |
| --- | --- | --- | --- | --- | --- | --- | --- | --- | --- | --- | --- | --- | --- | --- | --- | --- | --- | --- | --- | --- | --- |
| CCCCCCCC(=O)N[C@@H](CCCNC(=N)N)C(=O)NCCCN(CCCNC(=O)[C@H](CCCNC(=N)N)NC(=O)CCCCCCC)CC(=O)N[C@@H](CCCNC(=N)N)C(N)=O [di(C8-Arg)-Nbap-Arg-NH2] | – | – | – | – | – | – | – | – | – | – | – | – | – | – | – | – | – | – | – | – | MIC of compound alone [2]: 16 µg/mL; remaining at 2 h, 1 μM (in vitro [3]): 39.5 ± 7.4% |
| CN(C)c1ccc(O)c2c1C[C@H]1C[C@H]3[C@H](N(C)C)C(O)=C(C(N)=O)C(=O)[C@@]3(O)C(O)=C1C2=O [Minocycline] | – | – | – | – | – | – | – | – | – | – | – | 1 µg/mL | 16 µg/mL (≈ 35 µM) | 0.25 µg/mL | 0.5 µg/mL | 0.063 µg/mL | 0.5 µg/mL | 32 µg/mL (≈ 69.9 µM) | 64 µg/mL (≈ 140 µM) | 32 µg/mL (≈ 69.9 µM) | MIC [7]; 91433: 16 µg/mL (≈ 35 µM); MIC [7]; 114228: 32 µg/mL (≈ 69.9 µM); MIC [8]: 0.125 µg/mL (≈ 0.273 µM); MIC ([8]; 110193, read-out: MIC): 1 µg/mL (≈ 2.19 µM); MIC ([8]; AB027, read-out: MIC): 0.25 µg/mL (≈ 0.546 µM); MIC ([8]; AB031, read-out: MIC): 0.25 µg/mL (≈ 0.546 µM); MIC ([8]; LAC-4, read-out: MIC): 4 µg/mL (≈ 8.74 µM); MIC ([9]; 94393 (mcr-1 +)): 2 µg/mL (≈ 4.37 µM); MIC ([9]; 94474 (mcr-1 +)): 64 µg/mL (≈ 140 µM); MIC [9]; 107115: 32 µg/mL (≈ 69.9 µM); MIC [10]; 113250: 2 µg/mL (≈ 4.37 µM); MIC [10]; 113254: 2 µg/mL (≈ 4.37 µM); MIC [10]; 116381: 64 µg/mL (≈ 140 µM); MIC [11]; 117029: 32 µg/mL (≈ 69.9 µM) |
| CNC(C)C1CCC(N)C(OC2C(N)CC(N)C(OC3OCC(C)(O)C(NC)C3O)C2O)O1 (stereo not drawn) [Gentamicin] | – | – | – | – | – | – | – | – | – | – | – | 2 µg/mL | 2 µg/mL (≈ 4.19 µM) | > 1 µg/mL | > 1 µg/mL | 1 µg/mL | 2 µg/mL | > 32 µg/mL | > 32 µg/mL | > 32 µg/mL | MIC [7]; 91433: 32 µg/mL (≈ 67 µM); MIC ([8]; AB027, read-out: MIC): 32 µg/mL (≈ 67 µM); MIC ([8]; AB031, read-out: MIC): < 0.5 µg/mL; MIC ([8]; LAC-4, read-out: MIC): > 4 µg/mL; MIC ([9]; 94393 (mcr-1 +)): ≤ 0.5 µg/mL; MIC ([9]; 94474 (mcr-1 +)): 16 µg/mL (≈ 33.5 µM); MIC [9]; 107115: > 32 µg/mL; MIC [10]; 113250: ≤ 0.5 µg/mL; MIC [10]; 113254: ≤ 0.5 µg/mL; MIC [10]; 116381: ≤ 0.5 µg/mL; MIC [11]; 117029: ≤ 0.5 µg/mL; MIC [11]; 118564: 1 µg/mL (≈ 2.09 µM); MIC [11]; 121187: > 32 µg/mL |

Now from value to molecule, other results behind:

| MIC (P. aeruginosa PAO1) | MIC (A. baumannii ATCC 17978) | MIC (E. coli ATCC 25922) | Compound | hemolysis at 45 min, 1.5625 µM (in vitro [1]) | hemolysis at 45 min, 3.125 µM (in vitro [1]) | hemolysis at 45 min, 6.25 µM (in vitro [1]) | hemolysis at 45 min, 12.5 µM (in vitro [1]) | hemolysis at 45 min, 25 µM (in vitro [1]) | hemolysis at 45 min, 50 µM (in vitro [1]) | hemolysis at 45 min, 100 µM (in vitro [1]) | hemolysis at 45 min, 200 µM (in vitro [1]) | MICcombo [4] | MIC [4] | MICcombo [5] | MIC [5] | MICcombo [6] | MIC [6] | MIC ([7]; 259-96196) | MIC ([7]; 262-101856) | MIC ([7]; 264-104354) | also measured |
| --- | --- | --- | --- | --- | --- | --- | --- | --- | --- | --- | --- | --- | --- | --- | --- | --- | --- | --- | --- | --- | --- |
| >128 µg/mL | >128 µg/mL | >128 µg/mL | CCCCCCCC(=O)NC(CCCN)CC(=O)NCCCN(CCCNC(=O)CC(CCCN)NC(=O)CCCCCCC)CC(=O)NC(CCCN)CC(N)=O (stereo not drawn) [dUSTBβP 1] | 3.11 ± 0.07% | 3.12 ± 0.09% | 3.13% | 3.16 ± 0.04% | 3.12 ± 0.05% | 3.17 ± 0.06% | 3.35 ± 0.17% | 2.26 ± 0.19% | – | – | – | – | – | – | – | – | – | – |
| >128 µg/mL | >128 µg/mL | >128 µg/mL | CCCCCCCC(=O)NC(CCCCN)CC(=O)NCCCN(CCCNC(=O)CC(CCCCN)NC(=O)CCCCCCC)CC(=O)NC(CCCCN)CC(N)=O (stereo not drawn) [dUSTBβP 2] | 3.33 ± 0.12% | 3.28 ± 0.21% | 3.23 ± 0.11% | 3.22 ± 0.2% | 3.29 ± 0.14% | 3.24 ± 0.15% | 3.26 ± 0.1% | 3.21 ± 0.13% | – | – | – | – | – | – | – | – | – | – |
